Source: ChEMBL document CHEMBL3044976, “Screening and evaluation of rat kidney aldose reductase inhibitory activity of some pyridazine derivatives” (Med Chem Res, 2006)

The molecules below were run against Aldo-keto reductase family 1 member B1 (Rattus norvegicus) (UniProt P07943) (assay: Inhibition of Rattus norvegicus albino (rat) kidney aldose reductase using DL-glyceraldehyde as substrate assessed as decrease in NADPH concentRattus norvegicus (rat) ion at 10^-4 M after 5 min by spectrophotometrically).

inhibition [%] | Structure (SMILES)
0 | O=C(CCc1cc(-c2ccc(Cl)cc2)n(-c2ccc(Cl)nn2)n1)Nc1ccc(Cl)cc1
3.37 | Cc1cc(-c2ccccc2)nn1-c1ccc(=O)n(CC(=O)Nc2cccnc2)n1
0 | Cc1cc(C)n(-c2ccc(=O)n(CC(=O)Nc3cccnc3)n2)n1
0 | O=C(CCc1cc(-c2ccc(Cl)cc2)n(-c2ccc(Cl)nn2)n1)NCCc1ccccc1
0 | Cc1cc(-c2ccccc2)nn1-c1ccc(=O)n(CC(=O)N2CCN(c3ccc(F)cc3)CC2)n1
0 | Cc1nn(-c2ccc(=O)n(CC(=O)NCCc3ccccc3)n2)c(C)c1Cl
0 | Cc1nn(-c2ccc(=O)n(CC(=O)Nc3ccc(F)cc3)n2)c(C)c1Cl
0 | Cc1cc(-c2ccccc2)nn1-c1ccc(=O)n(CC(=O)Nc2ccc(Cl)cc2)n1
0 | CCOC(=O)Cn1nc(-n2nc(C)c(Cl)c2C)ccc1=O
0.76 | O=C(O)CCc1cc(-c2ccc(Cl)cc2)n(-c2ccc(Cl)nn2)n1
0 | CCOC(=O)Cn1nc(-n2nc(-c3ccccc3)cc2C)ccc1=O
0 | CCOC(=O)Cn1nc(-n2nc(C)cc2C)ccc1=O
0 | Cc1cc(-c2ccccc2)nn1-c1ccc(=O)n(CC(=O)NCCc2ccccc2)n1
0 | Cc1nn(-c2ccc(=O)n(CC(=O)Nc3ccc(Cl)cc3)n2)c(C)c1Cl
0 | Cc1cc(C)n(-c2ccc(=O)n(CC(=O)N3CCN(c4ccccc4F)CC3)n2)n1
0 | Cc1nn(-c2ccc(=O)n(CC(=O)N3CCCCC3)n2)c(C)c1Cl
0 | Cc1cc(C)n(-c2ccc(=O)n(CC(=O)NCCc3ccccc3)n2)n1
0.98 | Cc1nn(-c2ccc(=O)n(CC(=O)O)n2)c(C)c1Cl
0.76 | Cc1cc(-c2ccccc2)nn1-c1ccc(=O)n(CC(=O)O)n1
0 | Cc1cc(C)n(-c2ccc(=O)n(CC(=O)Nc3ccc(Cl)cc3)n2)n1
7.73 | Cc1cc(C)n(-c2ccc(=O)n(CC(=O)O)n2)n1
1.85 | Cc1cc(C)n(-c2ccc(=O)n(CC(=O)N3CCN(c4ccc(F)cc4)CC3)n2)n1
1.85 | Cc1cc(-c2ccccc2)nn1-c1ccc(=O)n(CC(=O)N2CCN(c3ccccc3F)CC2)n1
0 | O=C(CCc1cc(-c2ccc(Cl)cc2)n(-c2ccc(Cl)nn2)n1)N1CCCCC1
